Where two headings read alike, the source gives them in different places.
What was measured:
[1] = test system: TGEV; settings: 45% PG eluate; for Reduction Factor: vs T0
[2] = test system: BVDV; settings: 45% PG eluate; for Titre: Standard titration; for Reduction Factor: vs T0

propane-1,2-diol [PG]
Clearance Factor ([1]; Run 1, T = 0 Load Sample): 0.07 log | Titre ([1]; Run 1, T = 0 Load Sample, Standard titration): 5.12 log10 TCID50/ml | Clearance Factor ([1]; Run 1, T = 5 min): 124 log | Log10TICD50 (total viral load) ([1]; Run 1, T = 5 min): 5.21 Log10TICD50 | Titre ([1]; Run 1, T = 5 min, Standard titration): 3.95 log10 TCID50/ml | Reduction Factor ([1]; Run 1, T = 5 min): 1.0 log | Titre ([1]; Run 1, T = 15 min, Standard titration): 2.78 log10 TCID50/ml | Titre ([1]; Run 1, T = 60 min, Standard titration): 132 log10 TCID50/ml | Reduction Factor ([1]; Run 1, T = 60 min): 3.0 log | Clearance Factor ([1]; Run 1, T = 180 min): 4.38 log | Log10TICD50 (total viral load) ([1]; Run 1, T = 180 min): 3.08 Log10TICD50 | Titre ([1]; Run 1, T = 180 min, Standard titration): 0.8 log10 TCID50/ml | Titre ([1]; Run 1, T = 360 min, Standard titration): <0.8 log10 TCID50/ml | Clearance Factor ([1]; Run 2, T = 0 Load Sample): 0.08 log | Titre ([1]; Run 2, T = 0 Load Sample, Standard titration): 5.28 log10 TCID50/ml | Titre ([1]; Run 2, T = 5 min, Standard titration): 4.26 log10 TCID50/ml | Reduction Factor ([1]; Run 2, T = 5 min): 1 log | Log10TICD50 (total viral load) ([1]; Run 2, T = 15 min): 5.40 Log10TICD50 | Titre ([1]; Run 2, T = 15 min, Standard titration): 3.2 log10 TCID50/ml | Reduction Factor ([1]; Run 2, T = 15 min): 8.05 log | Clearance Factor ([1]; Run 2, T = 60 min): 4.50 log | Titre ([1]; Run 2, T = 60 min, Standard titration): 0.8 log10 TCID50/ml | Reduction Factor ([1]; Run 2, T = 60 min): 4.45 log | Titre ([1]; Run 2, T = 180 min, 1 LVP (96 wells)): −0.12 log10 TCID50/ml | Reduction Factor ([1]; Run 2, T = 180 min, LVP): 5.4 log | Titre ([1]; Run 2, T = 360 min, 1 LVP (96 wells)): <−0.12 log10 TCID50/ml | Reduction Factor ([1]; Run 2, T = 360 min, LVP): >5.40 log | Clearance Factor ([2]; Run 1, T = 0 Load Sample): 0.43 log | Clearance Factor ([2]; Run 1, T = 5 min): 165 log | Log10TICD50 (total viral load) ([2]; Run 1, T = 5 min): 4.53 Log10TICD50 | Titre ([2]; Run 1, T = 5 min): 18 log10TCID50/ml | Reduction Factor ([2]; Run 1, T = 5 min): 122 log | Clearance Factor ([2]; Run 1, T = 15 min): 13 log | Log10TICD50 (total viral load) ([2]; Run 1, T = 15 min): 6.50 Log10TICD50 | Reduction Factor ([2]; Run 1, T = 15 min): 0.97 log | Clearance Factor ([2]; Run 1, T = 60 min): 13 log | Log10TICD50 (total viral load) ([2]; Run 1, T = 60 min): 4.90 Log10TICD50 | Reduction Factor ([2]; Run 1, T = 60 min): 0.97 log | Clearance Factor ([2]; Run 1, T = 180 min): 13 log | Log10TICD50 (total viral load) ([2]; Run 1, T = 180 min): 4.58 Log10TICD50 | Reduction Factor ([2]; Run 1, T = 180 min): 0.97 log | Clearance Factor ([2]; Run 2, T = 0 Load Sample): 0.44 log | Log10TICD50 (total viral load) ([2]; Run 2, T = 0 Load Sample): 5.78 Log10TICD50 | Titre ([2]; Run 2, T = 25): 132 log10TCID50/ml | Reduction Factor ([2]; Run 2, T = 25): 171 log | Clearance Factor ([2]; Run 2, T = 5 min): 188 log | Titre ([2]; Run 2, T = 5 min): 159 log10TCID50/ml | Reduction Factor ([2]; Run 2, T = 5 min): 144 log | Clearance Factor ([2]; Run 2, T = 60 min): 168 log | Titre ([2]; Run 2, T = 60 min): 189 log10TCID50/ml | Reduction Factor ([2]; Run 2, T = 60 min): 144 log

— patent US20190254276A1 (priority 2010, published 2019)
